Source: patent publication US10696615B2, “Prenylated hydroxystilbenes” (The University of Sydney, priority 2011, dated 2020)

What was measured:
Assay type in all cases: cell-based, human
[1] = tested on: HCT-15; assay: NCI in vitro cancer screen, Colon Cancer; details: HCT-15
[2] = tested on: CCRF-CEM; assay: NCI in vitro cancer screen, Leukemia
[3] = tested on: SK-MEL-5; assay: NCI in vitro cancer screen, Melanoma; details: SK-MEL-5
[4] = tested on: ADR-RES (NCI/ADR-RES); assay: NCI in vitro cancer screen, Ovarian Cancer
[5] = tested on: DU-145; assay: NCI in vitro cancer screen, Prostate Cancer; details: DU-145
[6] = tested on: SNB-19; assay: NCI in vitro cancer screen, CNS Cancer; details: SNB-19
[7] = tested on: LOX IMVI; assay: NCI in vitro cancer screen, Melanoma
[8] = tested on: NCI-H460; assay: NCI in vitro cancer screen, Non-Small Cell Lung Cancer; details: NCI-H460
[9] = tested on: HCT-116; assay: NCI in vitro cancer screen, Colon Cancer; details: HCT-116
[10] = tested on: OVCAR-8; assay: NCI in vitro cancer screen, Ovarian Cancer; details: OVCAR-8
[11] = tested on: M14; assay: NCI in vitro cancer screen, Melanoma; details: M14
[12] = tested on: KM12; assay: NCI in vitro cancer screen, Colon Cancer; details: KM12
[13] = tested on: ACHN; assay: NCI in vitro cancer screen, Renal Cancer
[14] = tested on: NCI-H23; assay: NCI in vitro cancer screen, Non-Small Cell Lung Cancer; details: NCI-H23
[15] = tested on: SK-MEL-28; assay: NCI in vitro cancer screen, Melanoma; details: SK-MEL-28
[16] = tested on: MDA-MB-231 (MDA-MB-231/ATCC); assay: NCI in vitro cancer screen, Breast Cancer; details: MDA-MB-231
[17] = tested on: U251; assay: NCI in vitro cancer screen, CNS Cancer; details: U251
[18] = tested on: HOP-92; assay: NCI in vitro cancer screen, Non-Small Cell Lung Cancer; details: HOP-92
[19] = tested on: CAKI-1; assay: NCI in vitro cancer screen, Renal Cancer; details: CAKI-1
[20] = tested on: UACC-62; assay: NCI in vitro cancer screen, Melanoma; details: UACC-62
[21] = tested on: MALME-3M; assay: NCI in vitro cancer screen, Melanoma
[22] = tested on: HCC-2998; assay: NCI in vitro cancer screen, Colon Cancer; details: HCC-2998
[23] = tested on: SK-OV-3; assay: NCI in vitro cancer screen, Ovarian Cancer; details: SK-OV-3
[24] = tested on: SK-MEL-2; assay: NCI in vitro cancer screen, Melanoma; details: SK-MEL-2
[25] = tested on: PC-3; assay: NCI in vitro cancer screen, Prostate Cancer; details: PC-3
[26] = tested on: NCI-H522; assay: NCI in vitro cancer screen, Non-Small Cell Lung Cancer; details: NCI-H522
[27] = tested on: COLO 205; assay: NCI in vitro cancer screen, Colon Cancer; details: COLO 205
[28] = tested on: OVCAR-5; assay: NCI in vitro cancer screen, Ovarian Cancer; details: OVCAR-5
[29] = tested on: MOLT-4; assay: NCI in vitro cancer screen, Leukemia; details: MOLT-4
[30] = tested on: OVCAR-4; assay: NCI in vitro cancer screen, Ovarian Cancer; details: OVCAR-4
[31] = Homo sapiens, read-out: LC50 (the source's name)

COc1cc(/C=C/c2cc(O)c(CC=C(C)C)c(O)c2)ccc1O [USYDS13, (E)-4-(3-methyl-2-buten-1-yl)-3,4′,5-trihydroxy-3′-methoxystilbene]
TGI [1]: 20.5 µM
GI50 ([1]; Homo sapiens): 4.25 µM
CC50 [1, 31]: 84.5 µM
TGI [2]: >100 µM
GI50 ([2]; Homo sapiens): 6.56 µM
CC50 [2, 31]: > 100 µM
GI50 ([3]; Homo sapiens): 2.5 µM
CC50 [3, 31]: 29.2 µM
TGI [3]: 8.54 µM
TGI ([4]; ADR-RES): >100 µM
GI50 ([4]; Homo sapiens, NCI/ADR-RES): 4.41 µM
CC50 ([4]; Homo sapiens, NCI/ADR-RES, read-out: LC50 (the source's name)): > 100 µM
TGI [5]: 31.6 µM
GI50 ([5]; Homo sapiens): 6.82 µM
CC50 [5, 31]: > 100 µM
GI50 ([6]; Homo sapiens): 8.02 µM
CC50 [6, 31]: 64.5 µM
TGI [6]: 24.2 µM
TGI [7]: 20.2 µM
GI50 ([7]; Homo sapiens): 4.48 µM
CC50 [7, 31]: 80 µM
GI50 ([8]; Homo sapiens): 3.09 µM
CC50 [8, 31]: > 100 µM
TGI [8]: 15.6 µM
TGI [9]: 15.6 µM
GI50 ([9]; Homo sapiens): 4.33 µM
LC50 (concentration killing 50% of cells) ([9]; Homo sapiens): 45.6 µM
GI50 ([10]; Homo sapiens): 5.48 µM
CC50 [10, 31]: > 100 µM
TGI [10]: 59.8 µM
GI50 ([11]; Homo sapiens): 4.92 µM
CC50 [11, 31]: 51.6 µM
TGI [11]: 18.5 µM
GI50 ([12]; Homo sapiens): 3.15 µM
CC50 [12, 31]: 49 µM
TGI [12]: 16.1 µM
TGI [13]: >100 µM
GI50 ([13]; Homo sapiens): 5.11 µM
CC50 [13, 31]: > 100 µM
GI50 ([14]; Homo sapiens): 5.66 µM
LC50 ([14]; Homo sapiens): > 100 µM
TGI [14]: 28.0 µM
GI50 ([15]; Homo sapiens): 5.64 µM
LC50 ([15]; Homo sapiens): 70.5 µM
TGI [15]: 22.5 µM
GI50 ([16]; Homo sapiens): 1.63 µM
CC50 [16, 31]: > 100 µM
TGI [16]: 7.82 µM
GI50 ([17]; Homo sapiens, U-251): 5.47 µM
CC50 ([17]; Homo sapiens, U-251, read-out: LC50 (the source's name)): 57.6 µM
TGI [17]: 20.7 µM
TGI [18]: 30.5 µM
GI50 ([18]; Homo sapiens): 5.96 µM
CC50 [18, 31]: > 100 µM
TGI [19]: >100 µM
GI50 ([19]; Homo sapiens): 5.9 µM
CC50 [19, 31]: > 100 µM
GI50 ([20]; Homo sapiens): 5.3 µM
CC50 [20, 31]: 58.8 µM
TGI [20]: 19.7 µM
GI50 ([21]; Homo sapiens, Malme-3M): 5.53 µM
CC50 ([21]; Homo sapiens, Malme-3M, read-out: LC50 (the source's name)): > 100 µM
TGI ([21]; MALME-3M): 32.1 µM
TGI [22]: 30.6 µM
GI50 ([22]; Homo sapiens): 11 µM
CC50 [22, 31]: 85.3 µM
GI50 ([23]; Homo sapiens): 7.96 µM
CC50 [23, 31]: > 100 µM
TGI [23]: 36.2 µM
GI50 ([24]; Homo sapiens): 3.09 µM
LC50 ([24]; Homo sapiens): 40.2 µM
TGI [24]: 9.37 µM
GI50 ([25]; Homo sapiens): 6.36 µM
CC50 [25, 31]: > 100 µM
TGI [25]: >100 µM
GI50 ([26]; Homo sapiens): 2.13 µM
CC50 [26, 31]: 25.6 µM
TGI [26]: 59.8 µM
TGI [27]: 28.9 µM
GI50 ([27]; Homo sapiens): 15.6 µM
CC50 [27, 31]: 53.8 µM
GI50 ([28]; Homo sapiens): 13.9 µM
CC50 [28, 31]: > 100 µM
TGI [28]: 79.3 µM
GI50 ([29]; Homo sapiens): 2.95 µM
CC50 [29, 31]: > 100 µM
TGI [29]: 13.7 µM
GI50 ([30]; Homo sapiens): 9.68 µM
CC50 [30, 31]: > 100 µM
TGI [30]: 74.8 µM
